Data taken from ChEMBL document CHEMBL1140450, “On-resin cyclization of peptide ligands of the Vascular Endothelial Growth Factor Receptor 1 by copper(I)-catalyzed 1,3-dipolar azide-alkyne cycloaddition” (Bioorg Med Chem Lett, 2007).
Non-standard residues stand in square brackets, D forms with d. Residues, ends and D or L forms follow the SMILES beside them. *: point of attachment. X2 = [N-]=[N+]=N[C@@H](CCCCN)C(=O)*; Pra = C#CC[C@H](N)C(=O)O

Biological target: Vascular endothelial growth factor receptor 1 (Homo sapiens, UniProt P17948)
Sequence (P17948 whole entry): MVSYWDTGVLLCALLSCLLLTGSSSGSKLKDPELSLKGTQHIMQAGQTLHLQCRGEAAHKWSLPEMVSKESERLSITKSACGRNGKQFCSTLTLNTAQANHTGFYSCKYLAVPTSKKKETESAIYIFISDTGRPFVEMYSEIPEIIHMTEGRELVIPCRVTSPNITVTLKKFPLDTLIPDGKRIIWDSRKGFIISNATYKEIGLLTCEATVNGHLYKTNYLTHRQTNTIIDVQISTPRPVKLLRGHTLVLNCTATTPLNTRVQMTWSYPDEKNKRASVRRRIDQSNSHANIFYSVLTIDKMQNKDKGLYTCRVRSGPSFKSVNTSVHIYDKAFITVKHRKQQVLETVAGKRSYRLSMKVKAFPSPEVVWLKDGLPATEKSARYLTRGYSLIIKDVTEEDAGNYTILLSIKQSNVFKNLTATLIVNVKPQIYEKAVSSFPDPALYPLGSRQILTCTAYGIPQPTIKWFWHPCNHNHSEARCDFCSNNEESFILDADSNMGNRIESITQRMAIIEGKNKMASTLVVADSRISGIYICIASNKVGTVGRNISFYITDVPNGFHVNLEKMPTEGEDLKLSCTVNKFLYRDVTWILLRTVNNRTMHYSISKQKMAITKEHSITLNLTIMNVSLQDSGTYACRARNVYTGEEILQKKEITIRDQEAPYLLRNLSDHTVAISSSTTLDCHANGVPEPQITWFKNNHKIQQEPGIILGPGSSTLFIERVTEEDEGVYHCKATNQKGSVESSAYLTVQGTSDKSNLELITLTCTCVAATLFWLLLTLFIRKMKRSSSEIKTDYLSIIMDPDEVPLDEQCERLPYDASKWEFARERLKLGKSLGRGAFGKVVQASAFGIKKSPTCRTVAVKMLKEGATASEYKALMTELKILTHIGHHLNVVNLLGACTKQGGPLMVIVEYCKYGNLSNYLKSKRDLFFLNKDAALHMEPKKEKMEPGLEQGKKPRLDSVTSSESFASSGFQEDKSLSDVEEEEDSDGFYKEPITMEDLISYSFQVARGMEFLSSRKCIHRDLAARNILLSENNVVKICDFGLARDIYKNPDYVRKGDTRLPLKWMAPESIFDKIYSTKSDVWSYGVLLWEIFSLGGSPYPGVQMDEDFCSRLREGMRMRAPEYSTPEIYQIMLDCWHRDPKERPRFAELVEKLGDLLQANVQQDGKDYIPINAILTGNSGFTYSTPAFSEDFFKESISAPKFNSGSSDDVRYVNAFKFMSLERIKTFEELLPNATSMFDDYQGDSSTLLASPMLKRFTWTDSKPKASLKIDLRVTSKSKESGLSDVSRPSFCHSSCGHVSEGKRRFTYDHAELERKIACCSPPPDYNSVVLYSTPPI
Assay: Displacement of biotinylated VEGF165 from human recombinant VEGFR1

CSCC[C@@H]1NC(=O)[C@H](CCC(N)=O)NC(=O)[C@H](Cc2cnc[nH]2)NC(=O)Cn2cc(nn2)C[C@@H](C(N)=O)NC(=O)[C@H](Cc2ccc(O)cc2)NC(=O)[C@H](Cc2ccc(O)cc2)NC(=O)[C@H](Cc2ccccc2)NC1=O
IC50: 121 µM

C#CC[C@H](NC(=O)[C@H](CCC(=O)O)NC(=O)[C@H](CC(C)C)NC(=O)[C@@H]1CCCN1C(=O)[C@H](CCC(=O)O)NC(=O)[C@H](CC(=O)O)NC(=O)[C@H](Cc1ccc(O)cc1)NC(=O)[C@H](CCCCN)N=[N+]=[N-])C(N)=O (X2-YDEPLE[Pra]-NH2)
IC50: 151 µM
